Patent publication US8940800B2, “Pharmaceutical compositions with enhanced performance” (Bend Research, Inc., priority 2004, dated 2015)
Where two headings read alike, the source gives them in different places.

Columns and labels:
[1] = In vivo test of oral powder for constitution in beagle dogs (Example 2); details: male, dog, plasma, Fed, 90 mgA Drug 1 oral OPC
Method: Dispersions 1 and 4 were used as oral powders for constitution (OPC) for evaluating the performance of the dispersions in in vivo tests using male beagle dogs. The OPC was dosed as a suspension in a solution containing 0.5 wt % hydroxypropyl cellulose METHOCEL® (from Dow Chemical Co.), and was prepared as follows. First, 7.5 g of METHOCEL® was weighed out and added slowly to approximately 490 ml of water at 90-100° C. to form a METHOCEL® suspension. After all the METHOCEL® was added, 1000 mL of cool/room temperature water was added to the suspension, which was then placed in an ice water bath. When all of the METHOCEL® had dissolved, 2.55 g of polyoxyethylene 20 sorbitan monooleate (TWEEN 80) were added and the mixture stirred until the TWEEN 80 had dissolved, thus forming a stock suspension solution.
To form the OPC, sufficient quantity of the test composition to result in a 90 mgA amount of Drug 1 was accurately weighed and placed into a mortar. (“mgA” refers to mg of active drug.) A 20 mL quantity of the stock suspension solution was added to the mortar and the test composition was mixed with a pestle. Additional METHOCEL® suspension was added gradually with mixing until a total of 400 mL of the stock suspension solution had been added to the mortar. The suspension was then transferred to a flask, thus forming the OPC. This process was repeated for each of Dispersions 1 and 4. […]

[2] = In vivo test of oral powder for constitution in beagle dogs (Example 10); details: male, dog, plasma, Fed, 90 mgA Drug 1 oral OPC
Method: Dispersion 17, consisting of 50:50 Drug 1:HPMCA Polymer 10, was dosed in male beagle dogs as an oral powder for constitution (OPC), by suspending the dispersion in a solution containing 0.5 wt % hydroxypropyl cellulose METHOCEL® (from Dow Chemical Co.), as follows. First, 7.5 g of METHOCEL® was weighed out and added slowly to approximately 490 ml of water at 90-100° C. to form a METHOCEL® suspension. After all the METHOCEL® was added, 1000 mL of cool/room temperature water was added to the suspension, which was then placed in an ice water bath. When all of the METHOCEL® had dissolved, 2.55 g of polyoxyethylene 20 sorbitan monooleate (TWEEN 80) were added and the mixture stirred until the TWEEN 80 had dissolved, thus forming a stock suspension solution.
To form the OPC, sufficient quantity of the test composition to result in a 90 mgA amount of Drug 1 was accurately weighed and placed into a mortar. A 20 mL quantity of the stock suspension solution was added to the mortar and the test composition was mixed with a pestle. Additional METHOCEL® suspension was added gradually with mixing until a total of 400 mL of the stock suspension solution had been added to the mortar. The suspension was then transferred to a flask, thus forming the OPC. In addition, an OPC containing 90 mgA of amorphous Drug 1 was prepared using the same procedure.
Six male beagle dogs were each dosed with the OPC. […]

[3] = In vitro membrane permeation test, Drug 6 (Example 7); type: physicochemical; details: Drug 6, feed solution 0.5% NaTC/POPC, permeate 60 wt % decanol in decane
Method: Dispersion 19 (75:25 Drug 6:Polymer 17) was evaluated in vitro using the membrane permeation test described for Example 6, except that the permeate solution consisted of 60 wt % decanol in decane. The feed solution was made using MFD solution (0.5% NaTC/POPC). The concentration of Drug 6 in the feed solution would have been 500 μg/mL (354 μgA/mL), if all of the drug had dissolved.
As a control, crystalline Drug 6 alone was used. The concentration of drug added would have been 354 μgA/mL Drug 6, if all of the drug had dissolved.
The maximum flux of drug across the membrane (in units of μg/cm^2-min) was determined from the data by estimating the tangent to the concentration versus time curve at time 0.

[4] = Microcentrifuge dissolution test in PBS with NaTC/POPC, Drug 6 (Examples 8 and 12); type: physicochemical; details: 37° C., 0 to 90 minutes
Method: Dispersion 19 was also evaluated in a microcentrifuge dissolution test using the following procedures. For this test, 1.7 mg of Dispersion 19 and 1.27 mg of Crystalline Drug 6 was added to respective microcentrifuge tubes. The tubes were placed in a 37° C. temperature-controlled bath, and 1.8 mL phosphate buffered saline (PBS) at pH 6.5 and 290 mOsm/kg containing 7.3 mM sodium taurocholic acid and 1.4 mM of 1-palmitoyl-2-oleyl-sn-glycero-3-phosphocholine was added to each tube. The concentration of Drug 6 would have been […] if all of the drug had dissolved. The samples were quickly mixed using a vortex mixer for about 60 seconds. The samples were centrifuged at 13,000 G at 37° C. for 1 minute. The resulting supernatant solutions were then sampled and diluted 1:6 (by volume) with methanol and then analyzed by high-performance liquid chromatography (HPLC). The contents of the tubes were mixed on the vortex mixer and allowed to stand undisturbed at 37° C. until the next sample was taken. Samples were collected at 4, 10, 20, 40, 90, and 1200 minutes.
The concentrations of Drug 6 obtained in these samples were used to determine the values of the maximum drug concentration between 0 and 90 minutes (MDC90) and the area under the curve from 0 to 90 minutes (AUC90).
A physical mixture of 75 wt % Drug 6 and 25 wt % HPMCA Polymer 16 was evaluated using the microcentrifuge dissolution test described in Example 8. The concentration of Drug 6 would have been 500 μgA/mL if all of the drug had dissolved. A control consisting of a physical mixture of 75 wt % Drug 6 and 25 wt % HPMC (Dow E3 Prem LV) was tested in the same test.

physchem = details: pH 6, aqueous buffer
[5] = not told
[6] = Table 16, PBS pH 6.5 with 7.3 mM NaTC/1.4 mM POPC
[7] = Table 20, PBS pH 6.5 with NaTC/POPC

Compound `CCOC(=O)N1c2ccc(C(F)(F)F)cc2[C@@H](N(Cc2cc(C(F)(F)F)cc(C(F)(F)F)c2)C(=O)OC)C[C@H]1CC` [Amorphous Drug 1, [2R,4S]4-[(3,5-bis-trifluoromethyl-benzyl)-methoxycarbonyl-amino]-2-ethyl-6-trifluoromethyl-3,4-dihydro-2H-quinoline-1-carboxylic acid ethyl ester] has a Cmax [1] of 190 ± 55 ng/mL, an AUC(0-t) ([1]; read-out: AUC(0-12)) of 640 ± 240 ng·h/mL and a Cmax [2] of 190 ± 55 ng/mL. The AUC(0-t) ([2]; read-out: AUC(0-12)) was 640 ± 240 ng·h/mL.

With `CCCc1nn(C)c2c(=O)[nH]c(-c3cc(S(=O)(=O)N4CCN(C)CC4)ccc3OCC)nc12.O=C(O)CC(O)(CC(=O)O)C(=O)O` [Crystalline Drug 6, 1-[4-ethoxy-3-(6,7-dihydro-1-methyl-7-oxo-3-propyl-1H-pyrazolo[4,3-d]pyrimidin-5-yl)phenylsulphonyl]-4-methylpiperazine citrate salt] the “Maximum Drug Flux” value [3] was 3.8 μg/cm^2-min, the AUC90 [4, 6] was 7,000 min * μgA/mL and the MDC,90 [4, 6] was 98 μgA/mL. The AUC90 [4, 7] was 7,000 min * μgA/mL and the MDC,90 [4, 7] was 98 μgA/mL.

`CCCc1nn(C)c2c(=O)[nH]c(-c3cc(S(=O)(=O)N4CCN(C)CC4)ccc3OCC)nc12.O=C(O)CC(O)(CC(=O)O)C(=O)O` [Drug 6, 1-[4-ethoxy-3-(6,7-dihydro-1-methyl-7-oxo-3-propyl-1H-pyrazolo[4,3-d]pyrimidin-5-yl)phenylsulphonyl]-4-methylpiperazine citrate salt] showed a solubility (physchem) of about 20 µg/mL.

In the case of “[2R,4S]4-[(3,5-bis-trifluoromethyl-benzyl)-methoxycarbonyl-amino]-2-ethyl-6-trifluoromethyl-3,4-dihydro-2H-quinoline-1-carboxylic acid ethyl ester [Crystalline Drug 1]”, the “Maximum Drug Flux” value [5] is reported as 0.16 μg/cm^2-min.
